Data published in US5192764A, “Pyrazinone N-oxide nucleosides and analogs thereof” (priority 1991, dated 1993).
pEC50, pIC50: −log10 of the molar value.

Key:
herpes simplex = settings: literature; comparable to 5-iodo-2'-deoxyuridine; cited from earlier work
vaccinia viruses = settings: literature; comparable to 5-iodo-2'-deoxyuridine; cited from earlier work
HSV-1 (KOS strain) [1] = test: Plaque reduction method, anti-HSV-1 (KOS strain); format: cell-based; settings: for activity at 1 µM: Human alphaherpesvirus 1, 1 uM; for activity at 1 µM / activity at 5 µM / activity at 25 µM / activity at 100 µM: read-out: Plaque Forming Units, % of Control; for activity at 5 µM: Human alphaherpesvirus 1, 5 uM; for activity at 25 µM: Human alphaherpesvirus 1, 25 uM; for activity at 100 µM: Human alphaherpesvirus 1, 100 uM; for antiherpes activity (in words): data of Table 1
Description: Antiviral (HSV) activities of 1-(2'-Deoxy-B-D-ribofuranosyl)-2-pyrazinone-4-N-oxide (A in table 1) and the corresponding 1-(2'-Deoxy-B-D-ribofuranosyl)-5-methyl-2-pyrazinone-N-oxide and 1-(2,-Deoxy-B-D-ribofuranosyl)-5-ethyl-2-pyrazinone-4-N-oxide (respectively, B and C of table 1) were determined according to the procedure described in Gao, et al., Antimic. Agents Chem., 34, 808 (1990), using the plaque reduction method. Table 1 indicates the relative antiviral activities of the three derivatives against HSV-1 (KOS strain).

HSV-1 (KOS strain) [2] = test: Virus Yield Method against HSV-1 (KOS strain); format: cell-based; settings: for IC90: Human alphaherpesvirus 1, read-out: ID90 (the source's name)
HSV-2 (333) = test: Virus Yield method against HSV-2 (333); format: cell-based; settings: Human alphaherpesvirus 2, read-out: ID90 (the source's name)
HSV-1 KOS (PFAr) = test: Plaque Reduction Method against HSV-1 KOS phosphonoformate resistant strain; format: cell-based; settings: Human alphaherpesvirus 1, read-out: ID50
Description: (§1) Using the Plaque Reduction Method, activity against HSV-1 KOS Phosphono formate resistant (PFAr) and KOS 9-(2-Phosphonylmethoxyethyl)-adenine resistant (PMEAr) strains was assessed.

HSV-1 KOS (PMEAr) = test: Plaque Reduction Method against HSV-1 KOS 9-(2-phosphonylmethoxyethyl)-adenine resistant strain; format: cell-based; settings: Human alphaherpesvirus 1, read-out: ID50
Description: as §1

leukemia L1210 cells = test: Cytotoxicity against leukemia L1210 cells; format: cell-based; settings: up to a concentration of 2×10^-3
Description: (§2) Compounds B and C were tested for cytotoxicity against leukemia L1210 cells up to a concentration of 2×10^-3 according to the method described in Bobek and Bloch, J. Med. Chem., 20, 458, 1977. In addition, these compounds were tested for cytotoxicity against a human T-cell lymophoblast cell line (CEM) according to the method of Vazquez-Padua, et al., Cancer Comm., 2, 55-62 (1990) with the exception that the cell line was different, to assay the cells, the cells were counted with a cell counter and the cells were incubated for 4 days instead of for 3 days.

bacterial cells = settings: literature; cited from earlier work
leukemic L1210 cells = settings: literature; cited from earlier work
[3] = Cytotoxicity against human T-cell lymphoblast cell line (CEM); format: cell-based; settings: human; CEM cells, 4 days incubation; read-out: cytotoxicity ID50
Description: as §2

[4] = test system: human T-cell lymophoblast cell line (CEM); test: as above; format: cell-based; settings: CEM cells, 4 days incubation
Description: as §2

EBV = test: Anti-EBV activity, EBV DNA in high EBV producer cell line; format: cell-based; settings: EBV DNA in Hl subclone of P3HR-1 cells, EBV DNA probe BAMH IM
Description: In particular, when EBV DNA was assessed in a high EBV producer cell line (Hl, which is a subclone of P3HR-1 cells of Burkitt's lymphoma cell line), Compound C evidenced anti-EBV activity. The methodology employed in the EBV assay is similar to the method of Foster, et al., Jour. Biol. Chem., 266, 238, (1991), except that the EBV DNA was assessed with an EBV DNA probe BAMH IM.

Varicella Zoster (VZV) = test: Anti-VZV activity (Virus Yield) in HLF human cell line; format: cell-based
Excerpt: As tested, using the above-described methodology, luM of Compound C inhibited 90% of the Virus Yield.

thymidine phosphorylase = test: Breakdown by human liver thymidine phosphorylase; format: biochemical; settings: enzyme from human liver
Excerpt: Compound C was also examined against thymidine phosphorylase obtained from the human liver using standard methodology.

For `CCc1cn([C@H]2C[C@H](O)[C@@H](CO)O2)c(=O)[nH]c1=O` [5-ethyl-2'-deoxyuridine], the “activity against herpes simplex” value (herpes simplex) is given as “significant activity” and the “activity against vaccinia viruses” value (vaccinia viruses) is given as “significant activity”.
In the case of `Cc1cn([C@H]2C[C@H](O)[C@@H](CO)O2)c(=O)c[n+]1[O-]` [Compound B, 1-(2'-Deoxy-B-D-ribofuranosyl)-5-methyl-2-pyrazinone-N-oxide], the activity at 1 µM (HSV-1 (KOS strain) [1]) was 100%, the activity at 5 µM (HSV-1 (KOS strain) [1]) was 39% and the activity at 25 µM (HSV-1 (KOS strain) [1]) was 0.91%. The activity at 100 µM (HSV-1 (KOS strain) [1]) was 0.09%, the “antiherpes activity (in words)” value (HSV-1 (KOS strain) [1]) was “significant antiherpes activity” and the IC90 (HSV-1 (KOS strain) [2]) was 1800 nM. It also gave an IC90 (HSV-2 (333)) of 3000 nM, a pIC50 (HSV-1 KOS (PFAr)) of 5.85 and a pIC50 (HSV-1 KOS (PMEAr)) of 6.22. The cytotoxicity (leukemia L1210 cells) was “significant cytoxtoxicity”, the “antibacterial / antimicrobial activity” value (bacterial cells) was “only marginally active” and the “activity against leukemic L1210 cells” value (leukemic L1210 cells) was “significantly more active”.
With `CCc1cn([C@H]2C[C@H](O)[C@@H](CO)O2)c(=O)c[n+]1[O-]` [Compound C, 1-(2-Deoxy-B-D-ribofuranosyl)-5-ethyl-2-pyrazinone-4-N-oxide] the activity at 1 µM (HSV-1 (KOS strain) [1]) was 100%, the activity at 5 µM (HSV-1 (KOS strain) [1]) was 55% and the activity at 25 µM (HSV-1 (KOS strain) [1]) was 4.5%. The activity at 100 µM (HSV-1 (KOS strain) [1]) was 0.3%, the pEC50 (HSV-1 (KOS strain) [1]; Human alphaherpesvirus 1, plaque reduction) was 5.22 and the “antiherpes activity (in words)” value (HSV-1 (KOS strain) [1]) was “significant antiherpes activity”. The IC90 (HSV-1 (KOS strain) [2]) was 2800 nM, the IC90 (HSV-2 (333)) was 2000 nM and the pIC50 (HSV-1 KOS (PFAr)) was 5.47. The pIC50 (HSV-1 KOS (PMEAr)) was 6.00, the cytotoxicity (leukemia L1210 cells) was “virtually no cytotoxicity” and the CC50 at 96 h [3] was over 400000 nM. For the same compound, the “cytotoxicity relative to Compound B” value [4] was “significantly less toxic than Compound B”, the anti-EBV activity (EBV) was “significant anti-EBV activity” and the “activity against VZV (in words)” value (Varicella Zoster (VZV)) was “significant activity”. The “inhibition of Virus Yield” value (Varicella Zoster (VZV); luM) was 90%, the “substrate of thymidine phosphorylase” value (thymidine phosphorylase) was “substrate of the enzyme” and the “rate of breakdown by the enzyme relative to thymidine” value (thymidine phosphorylase; compared with thymidine) was “much less than the rate or breakdown of thymidine”.
For `Nc1nc2c(ncn2COCCO)c(=O)[nH]1` [acyclovir, reference compound], the “ID90 of ACV relative to Compound C (fold higher)” value (HSV-1 (KOS strain) [2]) was “approximately 7 fold”, the IC90 (HSV-1 (KOS strain) [2]) was 14000 nM and the pIC50 (HSV-1 KOS (PFAr)) was 5.21.
Compound `O=c1c[n+]([O-])ccn1[C@H]1C[C@H](O)[C@@H](CO)O1` [A, 1-(2'-Deoxy-B-D-ribofuranosyl)-2-pyrazinone-4-N-oxide] has an activity at 1 µM (HSV-1 (KOS strain) [1]) of 100%, an activity at 5 µM (HSV-1 (KOS strain) [1]) of 100% and an activity at 25 µM (HSV-1 (KOS strain) [1]) of 100%. For the same compound, the activity at 100 µM (HSV-1 (KOS strain) [1]) was 100%, the “antiherpes activity (in words)” value (HSV-1 (KOS strain) [1]) was “inactive” and the “antibacterial / antimicrobial activity” value (bacterial cells) was “significantly more effective as an antimicrobial agent than the riboside”. The “activity against leukemic L1210 cells” value (leukemic L1210 cells) was “essentially inactive”.
In the case of `O=c1c[n+]([O-])ccn1[C@@H]1O[C@H](CO)[C@@H](O)[C@H]1O` [riboside of 2-pyrazinone-4-N-oxide, reference compound], the “antibacterial / antimicrobial activity” value (bacterial cells) is given as “antibacterial activity”.
